Measured values as given in US7732609B2, “5-(arylsulfonyl)-pyrazolopiperidines” (Elan Pharmaceuticals, Inc., priority 2005, dated 2010).

Target: T1, gamma-secretase (Homo sapiens, UniProt P49768)
T1 construct: The assay used a partially purified extract of IMR-32 cell membranes as the gamma-secretase enzyme preparation; endogenous in cells; host or cells: IMR-32 cell membranes (partially purified extract)
Assay: Gamma-secretase APP enzyme assay (MBP-C125 Swe cleavage at Aβ40 site, sandwich ELISA)
Format: biochemical
Settings: IMR-32 cell membrane extract as enzyme; MBP-C125swe substrate; 2 h at 37° C; read-out: γAPP
From the text: The gamma-secretase APP enzyme assay was designed to measure the specific proteolytic cleavage of an APP substrate (MBP-C125 Swe fusion protein) at the Aβ40 site. The assay used a partially purified extract of IMR-32 cell membranes as the gamma-secretase enzyme preparation and a recombinant fusion protein containing the C-terminal 125 amino acids of the Swedish variant of the APP (MBP-C125swe) as the substrate. This assay involved two steps beginning with the enzymatic reaction generating a cleavage product that was captured with an immobilized antibody specific for the neo-epitope Aβ40 site. The captured cleavage product was then detected in a sandwich ELISA assay with a biotinylated reporter antibody that is specific to Aβ (17-28). Streptavidin-linked alkaline phosphatase was then added that would generate a fluorescent signal proportional to the amount of cleavage product. This assay was used to discover small molecule inhibitors of gamma-secretase.
Briefly, a 149 mg/ml solution of BIGCHAP detergent was made with water at 42° C. and then rotated for 30 minutes at the same temperature. This warmed solution of BigCHAPS(N,N-Bis(3-D-gluconamidopropyl)cholamide) detergent was used to dissolve Brain Extract Type-V (lipid containing a minimum of 40% phosphatidylethanolamine) from Sigma (St. Louis, Mo.) to a concentration of 8 mg/ml. This solution containing BigCHAPS and lipid at 8 mg/ml is then diluted to 0.53 mg/ml lipid with a pre-warmed solution of Hepes and sodium chloride. This final solution containing Hepes buffer, sodium chloride, BigCHAPS detergent and lipid is used to create working solutions of both gamma-secretase (25 Units) and the MBP-C125 substrate (0.05 mg/ml).
Gamma-secretase was then added to a 96-well micro-titre plate and then incubated with various concentrations of inhibitor for 30 minutes at 37° C. MBPC125 substrate was then added to initiate the reaction that would run for two hours at 37° C. The reaction was quenched with the addition of SDS to a final concentration of 0.1% and then 100 μl of the reaction mixture was transferred to a capture ELISA plate and incubated overnight at 4° C. Detection of the cleavage product was performed using a standard sandwich ELISA assay and quantified using a six point standard curve.

| SMILES | IC50 [nM] |
| --- | --- |
| O=S(=O)(c1ccc(Cl)cc1)N1Cc2c[nH]nc2CC1c1cncnc1 (single isomer, unassigned) [5-(4-chlorophenylsulfonyl)-6-(pyrimidin-5-yl)-4,5,6,7-tetrahydro-1H-pyrazolo[4,3-c]pyridine] | < 50 |
| O=S(=O)(c1ccc(Cl)cc1)N1CCc2n[nH]cc2C1c1nccs1 (stereo not drawn) [2-(5-(4-chlorophenylsulfonyl)-4,5,6,7-tetrahydro-2H-pyrazolo[4,3-c]pyridin-4-yl)thiazole] | < 50 |
| O=S(=O)(c1ccc(Cl)cc1)N1Cc2c[nH]nc2CC1c1nccs1 (stereo not drawn) [2-(5-(4-chlorophenylsulfonyl)-4,5,6,7-tetrahydro-2H-pyrazolo[4,3-c]pyridin-6-yl)thiazole] | 150 to 300 |
| O=S(=O)(c1ccc(Cl)cc1)N1CCc2[nH]ncc2C1c1nc2ccccc2[nH]1 (stereo not drawn) [4-(1H-Benzoimidazol-2-yl)-5-(4-chloro-benzenesulfonyl)-4,5,6,7-tetrahydro-1H-pyrazolo[4,3-c]pyridine] | 150 to 300 |
| O=S(=O)(c1ccc(Cl)cc1)N1CCc2ncccc2C1c1ccc(Cl)cc1 (stereo not drawn) [5-(4-chlorophenyl)-6-(4-chlorophenylsulfonyl)-5,6,7,8-tetrahydro-1,6-naphthyridine] | < 50 |
| CCC1c2cn[nH]c2CC(CO)N1S(=O)(=O)c1ccc(Cl)cc1 (stereo not drawn) [5-(4-chlorophenylsulfonyl)-4-ethyl-4,5,6,7-tetrahydro-1H-pyrazolo[4,3-c]pyridin-6-yl)methanol] | < 50 |
| O=S(=O)(c1ccc(Cl)cc1)N1Cc2c[nH]nc2CC1c1cc(F)cc(F)c1 (stereo not drawn) [5-(4-chlorophenylsulfonyl)-6-(3,5-difluorophenyl)-4,5,6,7-tetrahydro-1H-pyrazolo[4,3-c]pyridine] | < 50 |
| O=S(=O)(c1ccc(Cl)cc1)N1Cc2cn[nH]c2CC1c1cccc(F)c1 (stereo not drawn) [5-(4-chlorophenylsulfonyl)-6-(3-fluorophenyl)-4,5,6,7-tetrahydro-1H-pyrazolo[4,3-c]pyridine] | < 50 |
| O=S(=O)(c1ccc(Cl)cc1)N1Cc2cn[nH]c2CC1c1ccc(F)cc1 (stereo not drawn) [5-(4-chlorophenylsulfonyl)-6-(4-fluorophenyl)-4,5,6,7-tetrahydro-1H-pyrazolo[4,3-c]pyridine] | < 50 |
| O=S(=O)(c1ccc(Cl)cc1)N1Cc2cn[nH]c2CC1c1cccnc1 (stereo not drawn) [5-(4-chlorophenylsulfonyl)-6-(pyridin-3-yl)-4,5,6,7-tetrahydro-1H-pyrazolo[4,3-c]pyridine] | 50 to 150 |
| O=S(=O)(c1ccc(Cl)cc1)N1Cc2cn[nH]c2CC1c1ccncc1 (stereo not drawn) [5-(4-chlorophenylsulfonyl)-6-(pyridin-4-yl)-4,5,6,7-tetrahydro-1H-pyrazolo[4,3-c]pyridine] | 150 to 300 |
| CC(C)C1Cc2n[nH]cc2CN1S(=O)(=O)c1ccc(Cl)cc1 (stereo not drawn) [5-(4-chlorophenylsulfonyl)-6-isopropyl-4,5,6,7-tetrahydro-1H-pyrazolo[4,3-c]pyridine] | < 50 |
| O=S(=O)(c1ccc(Cl)cc1)N1Cc2c[nH]nc2CC1c1ccccc1 (stereo not drawn) [5-(4-chlorophenylsulfonyl)-6-phenyl-4,5,6,7-tetrahydro-1H-pyrazolo[4,3-c]pyridine] | < 50 |

Results, then the compound that gave them:

| IC50 [nM] | SMILES |
| --- | --- |
| < 50 | O=S(=O)(c1ccc(Cl)s1)N1Cc2cn[nH]c2CC1c1ccccc1 (stereo not drawn) [5-(5-chlorothiophen-2-ylsulfonyl)-6-phenyl-4,5,6,7-tetrahydro-1H-pyrazolo[4,3-c]pyridine] |
| 150 to 300 | O=S(=O)(c1ccc(Cl)cc1)N1Cc2c(C(F)(F)F)n[nH]c2CC1c1ccc(Cl)cc1 (stereo not drawn) [6-(4-chlorophenyl)-5-(4-chlorophenylsulfonyl)-3-(trifluoromethyl)-4,5,6,7-tetrahydro-1H-pyrazolo[4,3-c]pyridine] |
| 50 to 150 | O=S(=O)(c1ccc(Cl)cc1)N1Cc2c[nH]nc2CC1Cc1ccccc1 (stereo not drawn) [6-benzyl-5-(4-chlorophenylsulfonyl)-4,5,6,7-tetrahydro-1H-pyrazolo[4,3-c]pyridine] |
| 150 to 300 | O=S(=O)(c1ccc(Cl)cc1)N1Cc2cccnc2CC1c1ccc(Cl)cc1 (stereo not drawn) [7-(4-chlorophenyl)-6-(4-chlorophenylsulfonyl)-5,6,7,8-tetrahydro-1,6-naphthyridine] |
| < 50 | CC[C@@H]1c2c[nH]nc2C[C@H](c2ccc(Cl)cc2)N1S(=O)(=O)c1ccc(Cl)cc1 [(4R,6R)-6-(4-chlorophenyl)-5-(4-chlorophenylsulfonyl)-4-ethyl-4,5,6,7-tetrahydro-1H-pyrazolo[4,3-c]pyridine] |
| < 50 | CC[C@H]1Cc2n[nH]cc2[C@@H](CC)N1S(=O)(=O)c1ccc(F)cc1 [(4R,6S)-4,6-diethyl-5-(4-fluorophenylsulfonyl)-4,5,6,7-tetrahydro-2H-pyrazolo[4,3-c]pyridine] |
| 50 to 150 | CC[C@H]1Cc2[nH]ncc2[C@@H](CC)N1S(=O)(=O)c1ccccn1 [(4R,6S)-4,6-diethyl-5-(pyridin-2-ylsulfonyl)-4,5,6,7-tetrahydro-1H-pyrazolo[4,3-c]pyridine] |
| < 50 | CC[C@H]1Cc2n[nH]cc2[C@@H](c2ccc(Cl)cc2)N1S(=O)(=O)c1ccc(Cl)cc1 [(4R,6S)-4-(4-chlorophenyl)-5-(4-chlorophenylsulfonyl)-6-ethyl-4,5,6,7-tetrahydro-1H-pyrazolo[4,3-c]pyridine] |
| < 50 | CC[C@H]1Cc2n[nH]cc2[C@@H](CC)N1S(=O)(=O)c1ccc(Cl)cc1 [(4R,6S)-5-(4-chlorophenylsulfonyl)-4,6-diethyl-4,5,6,7-tetrahydro-1H-pyrazolo[4,3-c]pyridine] |
| < 50 | CC[C@@H]1c2cn[nH]c2C(=O)[C@H](CC)N1S(=O)(=O)c1ccc(Cl)cc1 [(4R,6S)-5-(4-chlorophenylsulfonyl)-4,6-diethyl-5,6-dihydro-1H-pyrazolo[4,3-c]pyridin-7(4H)-one] |
| < 50 | C[C@@H]1c2cn[nH]c2C[C@H](C)N1S(=O)(=O)c1ccc(Cl)cc1 [(4R,6S)-5-(4-chlorophenylsulfonyl)-4,6-dimethyl-4,5,6,7-tetrahydro-1H-pyrazolo[4,3-c]pyridine] |
| 50 to 150 | CC[C@@H]1c2cn[nH]c2/C(=N\O)[C@H](CC)N1S(=O)(=O)c1ccc(Cl)cc1 [(4R,6S,Z)-5-(4-chlorophenylsulfonyl)-4,6-diethyl-5,6-dihydro-1H-pyrazolo[4,3-c]pyridin-7(4H)-one oxime] |
| 50 to 150 | CC[C@@H]1Cc2[nH]ncc2[C@H](CC)N1S(=O)(=O)c1ccc(Cl)cc1 [(4S,6R)-5-(4-chlorophenylsulfonyl)-4,6-diethyl-4,5,6,7-tetrahydro-1H-pyrazolo[4,3-c]pyridine] |
| 150 to 300 | CC[C@@H]1C(=O)c2[nH]ncc2[C@H](CC)N1S(=O)(=O)c1ccc(Cl)cc1 [(4S,6R)-5-(4-chlorophenylsulfonyl)-4,6-diethyl-5,6-dihydro-1H-pyrazolo[4,3-c]pyridin-7(4H)-one] |
| < 50 | C[C@H]1Cc2[nH]ncc2[C@H](C)N1S(=O)(=O)c1ccc(Cl)cc1 [(4S,6S)-5-(4-chlorophenylsulfonyl)-4,6-dimethyl-4,5,6,7-tetrahydro-1H-pyrazolo[4,3-c]pyridine] |
| 150 to 300 | O=S(=O)(c1ccc(Cl)cc1)N1Cc2cn[nH]c2CC1CO (stereo not drawn) [(5-(4-chlorophenylsulfonyl)-4,5,6,7-tetrahydro-1H-pyrazolo[4,3-c]pyridin-6-yl)methanol] |
| 150 to 300 | CC[C@@H]1c2cn[nH]c2C[C@@H](COC(=O)N(C)C)N1S(=O)(=O)c1ccc(Cl)cc1 [((4R,6S)-5-(4-chlorophenylsulfonyl)-4-ethyl-4,5,6,7-tetrahydro-1H-pyrazolo[4,3-c]pyridin-6-yl)methyl dimethylcarbamate] |
